The text below walks through data of patent publication US7354911B2, “1,3-benzodioxol compound and use of same” (Sumitomo Chemical Company, Limited, priority 2006, dated 2008).

This assay deals with Musca domestica. Put plainly: Topical application of acetone solution to female adult Musca domestica, mortality after 24 hours. Type of assay: in vivo. The settings on record: 0.5 μL acetone solution on back of chest region, 25° C. The method, then: After mixing the present compounds (1), (2), (3), (4), (5), and (6) with d-allethrin respectively, acetone solutions containing each mixture with the respective prescribed concentrations (w/v) listed in Table 2 were prepared. An adult Musca domestica was applied with 0.5 μL of the acetone solution dropped on the back side of its chest region, transferred to a plastic cup having about 9 cm diameter and about 4.5 cm height, and then left at 25° C. with being fed by 5% of aqueous sugar solution. […] The number of the Musca domesticas contained in each cup was 10, and the test was repeated twice.
Furthermore, after preparing acetone solutions containing each of the present compounds (1), (2), (3), (4), (5), and (6) and d-allethrin in the respective prescribed concentrations (w/v) listed in Table 2, a test was conducted as the same manner mentioned above.
For comparison, with using 4,5-methylenedioxy-2-propylphenyl2-butoxyethyl ether (hereinafter, referred to as a comparative compound)
[drawing 16] in place of the present compounds, a test was conducted in the same manner.

The mark [1] stands for this setting: test compound 1.25 % (w/v) alone, d-allethrin 0 % (w/v).
The mark [2] stands for this setting: test compound 1.25 % (w/v) mixed with d-allethrin 0.25 % (w/v).

As to `CCCCOCCOc1cc2c(cc1CCC)OCO2` [Comparative compound, 4,5-methylenedioxy-2-propylphenyl2-butoxyethyl ether, reference compound], the mortality ratio is 0% under setting [1] and 55% under setting [2].

Consider `C=CCc1cc2c(cc1OCCOC)OCO2` [The present compound (1), 5-(2-methoxyethoxy)-6-(2-propenyl)-1,3-benzodioxol], for which the mortality ratio amounted to 0% under setting [1] and 100% under setting [2].

In the case of `CCCc1cc2c(cc1OCCOC)OCO2` [The present compound (2), 5-(2-methoxyethoxy)-6-propyl-1,3-benzodioxol], the mortality ratio is given as 0% under setting [1] and 90% under setting [2].

As for `C=CCc1cc2c(cc1OCCOCC)OCO2` [The present compound (3), 5-(2-ethoxyethoxy)-6-(2-propenyl)-1,3-benzodioxol], the mortality ratio under setting [1] was 0% and the mortality ratio under setting [2] is 100%.

As for `CCCc1cc2c(cc1OCCOCC)OCO2` [The present compound (4), 5-(2-ethoxyethoxy)-6-propyl-1,3-benzodioxol], the mortality ratio is recorded as 0% under setting [1] and 100% under setting [2].

For `C=CCc1cc2c(cc1OCCOCCC)OCO2` [The present compound (5), 5-{2-(propyloxy)ethoxy}-6-(2-propenyl)-1,3-benzodioxol], the mortality ratio reads like this: under setting [1], 0%; under setting [2], 90%.

As to `CCCOCCOc1cc2c(cc1CCC)OCO2` [The present compound (6), 5-{(2-propyloxy)ethoxy}-6-propyl-1,3-benzodioxol], the mortality ratio turned out to be 0% under setting [1] and 80% under setting [2].

Consider `C=CCC1=C(C)C(OC(=O)C2C(C=C(C)C)C2(C)C)CC1=O` (stereo not drawn) [d-allethrin, reference compound], for which, under “d-allethrin 0.25 % (w/v) alone, no test compound”, the mortality ratio is recorded as 0%.
